Entries after “also recorded” stand apart in the source; their conditions may differ. Where no end group is shown, it is not given here. [ ]: non-standard residue; d: D form.
Tests used:
[1] = test system: Primary rat neuronal cells; assay: Acute ischemia: anaerobic incubation of primary neurons (MTS assay); format: cell-based; conditions: anaerobic incubator for 35 minutes, peptide 15 mins pre-insult, MTS 24 hours later; FIG. 22
Protocol: Cells at the core of an ischemic event (e.g., a stroke) are subject to anaerobic conditions leading to severe energy depletion and glutamate release, which causes necrotic cell death. Such a condition is mimicked by incubating cell cultures in anaerobic conditions.
To determine the effect of peptides 35 (SEQ ID NO: 130) and 36 (SEQ ID NO: 134) comprising either D- or L-amino acids on an acute ischemic effect, primary rat neuronal cells were isolated and cultured. Synthetic peptides were added to cultures and the cells maintained in an anaerobic chamber for approximately 35 minutes. Cell survival was then measured.
Briefly, isolated rat neurons were treated with peptide for 15 mins pre-insult. After addition of peptide or control, Cells were washed in glucose free balanced salt solution containing deoxy glucose to prevent glycolysis. Cells were then incubated in anaerobic incubator for 35 minutes. Post insult, solution was removed, fresh media added to cells and MTS assayed for live cells 24 hours later.

[2] = test system: Primary rat neuronal cells; assay: Glutamate induced cell death of primary neurons, D and L amino acid synthetic peptides; format: cell-based; conditions: FIG. 21; for protection of neurons from glutamate induced cell death: 250 μM glutamate for 5 minutes; for protection offered by the D form relative to the L form of the peptide: same concentrations, glutamate induced cell death
Excerpt: D amino acid forms of peptides SP35 (designated D35) (SEQ ID NO: 132) and SP36 (designated D36) (SEQ ID NO: 136) comprising D amino acids other than glycine were produced synthetically, as were peptides SP35, SP36 and TIJIP comprising L-amino acids. The retro-inverted peptides further comprised a TAT protein targeting domain fused to the C-terminus of the inverted peptide moiety and separated therefrom by a single L-glycine residue in each case. The amino acid sequences of the retro-inverted peptide analogues of SEQ ID NOs: 132 and 136 are set forth in SEQ ID NOs: 181 and 182, respectively.
Primary rat neuronal cells were isolated and cultured using methods known in the art. Cells were then incubated in the presence or absence of a test peptide, a positive control peptide (Ti JIP) or a combination of known small-molecule glutamate inhibitors (MK801 and CNQX). Cells were incubated in the presence of 250 μM glutamate for 5 minutes to induce cell death representative of ischemia induced cell death.

c-Jun = biological target: T1, c-Jun (Homo sapiens, UniProt P05412); assay: Co-immunoprecipitation of c-Jun with FLAG-tagged peptides from HEK293 cells; format: binding; conditions: anti-FLAG capture, anti-c-Jun detection, FIG. 16
T1 construct: expressed in transfected cells; host or cells: HEK293
T1 sequence (P05412 whole entry): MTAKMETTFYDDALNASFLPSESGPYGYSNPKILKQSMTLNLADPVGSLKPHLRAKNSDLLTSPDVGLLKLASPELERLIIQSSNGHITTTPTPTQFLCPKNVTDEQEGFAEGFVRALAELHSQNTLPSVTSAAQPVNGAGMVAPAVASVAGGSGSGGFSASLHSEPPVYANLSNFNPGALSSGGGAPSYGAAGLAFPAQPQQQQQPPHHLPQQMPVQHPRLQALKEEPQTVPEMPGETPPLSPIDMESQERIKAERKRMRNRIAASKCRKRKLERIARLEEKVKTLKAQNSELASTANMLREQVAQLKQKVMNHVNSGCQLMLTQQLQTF
Protocol: HEK293 cells were cultured in DMEM+10% FCS, 2 mM L-glutamine. On the day prior to transfection, cells were trypsinised and split into 6-well tissue culture plates so that they reached 80-90% confluency for transfection. Cells were co-transfected with pcDNA3-Jun (1.3 μg) and pcDNA3-peptide (2.6 μg) using Lipofectamine-2000 reagent (Life Technologies, U.S.A.) as per manufacturer's instructions. Forty-eight hours post-transfection, transfected cells were scraped from the plates, collected by centrifugation and proteins extracted in hypotonic lysis buffer (1OmM Tris, 1OmM NaCl, 2 mM EDTA, pH 7.5+protease inhibitors (Roche, U.S.A.)). Salt concentration was adjusted to 15OmM by addition of NaCl, debris pelleted and proteins in supernatant collected in fresh tubes.
A small aliquot (40 μl) of protein was set aside for western analysis. The remainder was incubated by rotation at 4° C. for two hours, with either anti-Flag conjugated agarose beads (Sigma-Aldrich, U.S.A.) anti-Flag antibody (Sigma-Aldrich), preconjugated to anti-mouse magnetic Dynabeads (Dynal Biotech, Norway) according to manufacturer's directions. Protein complexes bound to conjugated beads were collected by centrifugation or over a Dynal magnet, washed eight times for five minutes with NET-2 buffer (50 mM Tris-Cl pH7.5, 150 mM NaCl, 0.05% Nonidet P-40). […]

AP-I luciferase reporter = assay: AP-1 luciferase reporter assay in K562-AP1 cells transfected with pcDNA3-peptide; format: cell-based; conditions: 48 hours after transfection, compared to control cells, p<0.05, FIG. 15
Protocol: The K562 cell line was stably-transfected with the AP-I luciferase reporter of the Mercury Profiling kit (Clontech, U.S.A.), and clonal cell line 26 established. In 6-well tissue culture plate format, K562-AP1 cells were transfected with either pcDNA3 control, pcDNA3-Jun or pcDNA3-peptide using Lipofectamine-2000 (Life Technologies), according to manufacturer's instructions. Transfections were incubated for 48 hours, cells collected and protein lysates extracted for luciferase assay according to Mercury Profiling kit and associated protocols. Luciferase assays were performed in independent triplicates, and results for each peptide subjected to statistical analysis (SPSS software package) to determine if they were different to Jun (positive control for AP-1 activation) or pcDNA-3 (negative control for AP-I activation).

SIRC cells = assay: UV B induced cell death, FACS for propidium iodide and Annexin V; format: cell-based; conditions: 10 minutes UV B, media containing 10 micromolar peptide, FIG. 18c
Protocol: Cells were exposed to UV B radiation and the level of cell death determined. Briefly, corneal keratinocytes in culture were exposed to IOmins UV irradiation. Post-exposure, media was replaced with either normal media or media containing 10 micromolar peptide. Subsequently, cells were prepared for FACS analysis. FACS analysis was used to detect propidium iodide and the level of Annexin V in a cell to determine the number of cells undergoing necrosis, early apoptosis or late apoptosis.

Primary rat neurons = assay: Glutamate induced cell death of primary neurons, in vitro ischemia model (MTS assay); format: cell-based; conditions: for rescue of primary neurons from glutamate induced cell death / number of cells surviving glutamate compared with TI-JIP: 250 μM glutamate; for rescue of primary neurons from glutamate induced cell death: live cells assayed 24 hours later, FIG. 19, 20; for number of cells surviving glutamate compared with TI-JIP: versus known c-Jun dimerization inhibitory peptide TI-JIP, FIG. 19
Protocol: Primary neuronal cells were isolated and cultured in the presence of glutamate (250 μM) for […] to induce cell death as a model of ischemia induced cell death.
Primary rat neurons were isolated from embryos (standard protocols), plated in cell culture dishes and maintained for 11 days in culture before experiment. Peptide was added 15 minutes to media before glutamate addition. Glutamate was added to final concentrations of 250 micromolar, for 5 mins at 37 degrees. Glutamate media removed, fresh media added. Assays for live cells done 24 hours later. Live cells were assayed using MTS assay.

D35: retro-inverted analogue of SEQ ID NO: 132 with C-terminal TAT domain after a single L-glycine; SEQ ID NO: 181 ([dR][dE][dR][dR][dS][dS][dS][dQ][dI]GG[dS][dR][dI][dS][dQ][dY][dA]GRRRQRRKKRG; also: C-terminal TAT domain: chirality not given here) [Peptide D35]
rescue of cells from cell death caused by acute ischemia [1]: a considerable proportion of cells from cell death | protection of neurons from glutamate induced cell death [2]: protects a considerable proportion of neurons from glutamate induced cell death | protection offered by the D form relative to the L form of the peptide [2]: superior

D36: retro-inverted analogue of SEQ ID NO: 136 with C-terminal TAT domain after a single L-glycine; SEQ ID NO: 182 ([dP][dK][dI][dS][dQ][dY]G[dQ][dR][dR][dR]G[dQ][dL]GGRRRQRRKKRG; also: C-terminal TAT domain: chirality not given here) [Peptide D36]
rescue of cells from cell death caused by acute ischemia [1]: a considerable proportion of cells from cell death | protection of neurons from glutamate induced cell death [2]: protects a considerable proportion of neurons from glutamate induced cell death | protection offered by the D form relative to the L form of the peptide [2]: equivalent

SP20: c-Jun dimerization inhibitory peptide; amino acid SEQ ID NO: 94 with flanking vector sequence, 96 without (IYSSILWGTKWCVLLVITP)
binding of c-Jun in co-immunoprecipitation (c-Jun): capable of binding c-Jun to a level detectable in a co-immunoprecipitation

SP34: c-Jun dimerization inhibitory peptide; amino acid SEQ ID NO: 126 with flanking vector sequence, 128 without (AYQSINSSPVLPENSQELSLHLKQHVTKS)
expression of a reporter gene under control of an AP-I regulatory region (AP-I luciferase reporter): significantly reducing expression of a reporter gene

SP36: c-Jun dimerization inhibitory peptide; amino acid SEQ ID NO: 134 with flanking vector sequence, 136 without (GLQGRRRQGYQSIKP)
number of cells undergoing apoptosis after UV B exposure (SIRC cells): capable of reducing the number of cells undergoing apoptosis | rescue of primary neurons from glutamate induced cell death (Primary rat neurons): capable of rescuing a significant proportion of cells from cell death; also recorded: capable of rescuing almost all cells from cell death; also recorded: dose dependent manner | number of cells surviving glutamate compared with TI-JIP (Primary rat neurons): considerably greater | cells rescued from glutamate induced cell death (Primary rat neurons; about 5 μM of peptide, FIG. 20): about 100% | protection of neurons from glutamate induced cell death [2]: protects a considerable proportion of neurons from glutamate induced cell death | expression of a reporter gene under control of an AP-I regulatory region (AP-I luciferase reporter): significantly reducing expression of a reporter gene

SP71: c-Jun dimerization inhibitory peptide; amino acid SEQ ID NO: 158 with flanking vector sequence, 160 without (PFFWRLNKIFYFIDSRVAAAILN)
rescue of primary neurons from glutamate induced cell death (Primary rat neurons): capable of rescuing a significant proportion of cells from cell death | number of cells surviving glutamate compared with TI-JIP (Primary rat neurons): considerably greater | expression of a reporter gene under control of an AP-I regulatory region (AP-I luciferase reporter): significantly reducing expression of a reporter gene
